Reference: patent publication US20250122219A1 (priority 2023, published 2025)
pEC50: −log10 of the molar value.

Legend:
[1] = Cytotoxicity assay in MT-4 cells; assay type: cell-based; conditions: human; uninfected MT-4 cells, 5 days incubation, Cell Titer Glo; read-out: MT4 CC50
Outline: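 Viability read by Cell Titer Glo luminescence after 5 days at 37 °C. MT-4 cells, not infected, in complete RPMI (10% FBS), received compound dilution series. Base cytotoxicity set with […] puromycin.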

[2] = system: HIV-1 (IIIB); test: Antiviral assay in MT-4 cells; assay type: cell-based; conditions: Human immunodeficiency virus 1, MT4, 120 h; HIV-1 IIIB in MT-4 cells, 5 days incubation, Cell Titer Glo; read-out: MT4 EC50
Outline: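 Read-out: CellTiter-Glo luminescence after 5 days at 37 °C, reflecting survival of MT-4 cells infected with HIV-1 IIIB (1:250 fresh stock dilution) versus mock-infected. Compounds serially diluted into RPMI with 10% FBS; AZT at 5 μM served as positive control.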

SMILES | pEC50 [2] | CC50 at 5 days [1]
CCCCCCCCC(=O)Oc1c2n(cc(C(=O)NCc3ccc(F)cc3F)c1=O)[C@@H]1CN(C2=O)[C@@H](C)CC[C@]12CC(C)=NO2 [Example 43, (3′S,5S,7′R)-10′-((2,4-difluorobenzyl)carbamoyl)-3,3′-dimethyl-1′,11′-dioxo-1′,4′,5′,11′-tetrahydro-3′H,4H,7′H-spiro[isoxazole-5,6′-[2,7]methanopyrido[1,2-a][1,4]diazonin]-12′-yl nonanoate] | 8.71 | 21.1 µM
COC1=NO[C@@]2(CC[C@H](C)N3C[C@H]2n2cc(C(=O)NCc4ccc(F)cc4F)c(=O)c(OCOC(=O)CCCC(C)C)c2C3=O)C1 [Example 113, (((3′S,5S,7′R)-10′-((2,4-difluorobenzyl)carbamoyl)-3-methoxy-3′-methyl-1′,11′-dioxo-1′,4′,5′,11′-tetrahydro-3′H,4H,7′H-spiro[isoxazole-5,6′-[2,7]methanopyrido[1,2-a][1,4]diazonin]-12′-yl)oxy)methyl 5-methylhexanoate] | 8.75 | 20.3 µM
COCCOCCOCCOCCOCCOCCOCCOC(=O)Oc1c2n(cc(C(=O)NCc3ccc(F)cc3F)c1=O)[C@@H]1CN(C2=O)[C@@H](C)CC[C@]12CC(C)=NO2 [Example 162, (3′S,5S,7′R)-10′-((2,4-difluorobenzyl)carbamoyl)-3,3′-dimethyl-1′,11′-dioxo-1′,4′,5′,11′-tetrahydro-3′H,4H,7′H-spiro[isoxazole-5,6′-[2,7]methanopyrido[1,2-a][1,4]diazonin]-12′-yl (2,5,8,11,14,17,20-heptaoxadocosan-22-yl) carbonate] | 8.62 | 27.8 µM
CC(=O)OCOc1c2n(cc(C(=O)NCc3ccc(F)cc3F)c1=O)[C@@H]1CN(C2=O)[C@@H](C)CC[C@]12CC(C)=NO2 [Example 84, (((3′S,5S,7′R)-10′-((2,4-difluorobenzyl)carbamoyl)-3,3′-dimethyl-1′,11′-dioxo-1′,4′,5′,11′-tetrahydro-3′H,4H,7′H-spiro[isoxazole-5,6′-[2,7]methanopyrido[1,2-a][1,4]diazonin]-12′-yl)oxy)methyl acetate] | 8.48 | 19.9 µM
CCCCC/C=C\C/C=C\CCCCCCCC(=O)Oc1c2n(cc(C(=O)NCc3ccc(F)cc3F)c1=O)[C@@H]1CN(C2=O)[C@@H](C)CC[C@]12CC(OC)=NO2 [Example 7, (3′S,5S,7′R)-10′-((2,4-difluorobenzyl)carbamoyl)-3-methoxy-3′-methyl-1′,11′-dioxo-1′,4′,5′,11′-tetrahydro-3′H,4H,7′H-spiro[isoxazole-5,6′-[2,7]methanopyrido[1,2-a][1,4]diazonin]-12′-yl (9Z,12Z)-octadeca-9,12-dienoate] | 8.13 | ≥ 50 µM
CCCCCCCCCCCCCCCC(=O)OCOc1c2n(cc(C(=O)NCc3ccc(F)cc3F)c1=O)[C@@H]1CN(C2=O)[C@@H](C)CC[C@]12CC(OC)=NO2 [Example 104, (((3′S,5S,7′R)-10′-((2,4-difluorobenzyl)carbamoyl)-3-methoxy-3′-methyl-1′,11′-dioxo-1′,4′,5′,11′-tetrahydro-3′H,4H,7′H-spiro[isoxazole-5,6′-[2,7]methanopyrido[1,2-a][1,4]diazonin]-12′-yl)oxy)methyl palmitate] | 7.93 | ≥ 50 µM
CC1=NO[C@@]2(CC[C@H](C)N3C[C@H]2n2cc(C(=O)NCc4ccc(F)cc4F)c(=O)c(OC(=O)OCCCCCCCC(C)C)c2C3=O)C1 [Example 160, (3′S,5S,7′R)-10′-((2,4-difluorobenzyl)carbamoyl)-3,3′-dimethyl-1′,11′-dioxo-1′,4′,5′,11′-tetrahydro-3′H,4H,7′H-spiro[isoxazole-5,6′-[2,7]methanopyrido[1,2-a][1,4]diazonin]-12′-yl (8-methylnonyl) carbonate] | 8.79 | 12.6 µM
CC1=NO[C@@]2(CC[C@H](C)N3C[C@H]2n2cc(C(=O)NCc4ccc(F)cc4F)c(=O)c(OCOC(=O)CCCCCCC(C)C)c2C3=O)C1 [Example 120, (((3′S,5S,7′R)-10′-((2,4-difluorobenzyl)carbamoyl)-3,3′-dimethyl-1′,11′-dioxo-1′,4′,5′,11′-tetrahydro-3′H,4H,7′H-spiro[isoxazole-5,6′-[2,7]methanopyrido[1,2-a][1,4]diazonin]-12′-yl)oxy)methyl 8-methylnonanoate] | 8.69 | 42.3 µM

Molecules with a higher pEC50 [2], results first:

pEC50 [2] | SMILES | CC50 at 5 days [1]
9.46 | CCCCCC(=O)Oc1c2n(cc(C(=O)NCc3ccc(F)cc3F)c1=O)[C@@H]1CN(C2=O)[C@@H](C)CC[C@]12CC(OC)=NO2 [Example 36, (3′S,5S,7′R)-10′-((2,4-difluorobenzyl)carbamoyl)-3-methoxy-3′-methyl-1′,11′-dioxo-1′,4′,5′,11′-tetrahydro-3′H,4H,7′H-spiro[isoxazole-5,6′-[2,7]methanopyrido[1,2-a][1,4]diazonin]-12′-yl hexanoate] | 19.6 µM
8.85 | CCC(=O)Oc1c2n(cc(C(=O)NCc3ccc(F)cc3F)c1=O)[C@@H]1CN(C2=O)[C@@H](C)CC[C@]12CC(C)=NO2 [Example 33, (3′S,5S,7′R)-10′-((2,4-difluorobenzyl)carbamoyl)-3,3′-dimethyl-1′,11′-dioxo-1′,4′,5′,11′-tetrahydro-3′H,4H,7′H-spiro[isoxazole-5,6′-[2,7]methanopyrido[1,2-a][1,4]diazonin]-12′-yl propionate] | 22.6 µM
9.10 | COC1=NO[C@@]2(CC[C@H](C)N3C[C@H]2n2cc(C(=O)NCc4ccc(F)cc4F)c(=O)c(OC(=O)CCCC(=O)O)c2C3=O)C1 [Example 73, 5-(((3′S,5S,7′R)-10′-((2,4-difluorobenzyl)carbamoyl)-3-methoxy-3′-methyl-1′,11′-dioxo-1′,4′,5′,11′-tetrahydro-3′H,4H,7′H-spiro[isoxazole-5,6′-[2,7]methanopyrido[1,2-a][1,4]diazonin]-12′-yl)oxy)-5-oxopentanoic acid] | 20.2 µM
8.84 | CC1=NO[C@@]2(CC[C@H](C)N3C[C@H]2n2cc(C(=O)NCc4ccc(F)cc4F)c(=O)c(OC(=O)C4CCCC4)c2C3=O)C1 [Example 53, (3′S,5S,7′R)-10′-((2,4-difluorobenzyl)carbamoyl)-3,3′-dimethyl-1′,11′-dioxo-1′,4′,5′,11′-tetrahydro-3′H,4H,7′H-spiro[isoxazole-5,6′-[2,7]methanopyrido[1,2-a][1,4]diazonin]-12′-yl cyclopentanecarboxylate] | 24.4 µM
9.34 | CC1=NO[C@@]2(CC[C@H](C)N3C[C@H]2n2cc(C(=O)NCc4ccc(F)cc4F)c(=O)c(OC(=O)CCC4CCCC4)c2C3=O)C1 [Example 59, (3′S,5S,7′R)-10′-((2,4-difluorobenzyl)carbamoyl)-3,3′-dimethyl-1′,11′-dioxo-1′,4′,5′,11′-tetrahydro-3′H,4H,7′H-spiro[isoxazole-5,6′-[2,7]methanopyrido[1,2-a][1,4]diazonin]-12′-yl 3-cyclopentylpropanoate] | 15.4 µM
9.69 | CCCC(=O)Oc1c2n(cc(C(=O)NCc3ccc(F)cc3F)c1=O)[C@@H]1CN(C2=O)[C@@H](C)CC[C@]12CC(C)=NO2 [Example 35, (3′S,5S,7′R)-10′-((2,4-difluorobenzyl)carbamoyl)-3,3′-dimethyl-1′,11′-dioxo-1′,4′,5′,11′-tetrahydro-3′H,4H,7′H-spiro[isoxazole-5,6′-[2,7]methanopyrido[1,2-a][1,4]diazonin]-12′-yl butyrate] | 14.1 µM
